Reference: patent publication EP0390515A1, “Novel adenine derivatives and their use as agents for increasing crop yields” (MITSUBISHI GAS CHEMICAL COMPANY, INC., priority 1989, dated 1990)
In brackets after ≈: the same amount, converted by molar mass. Like-named read-outs stand apart in the source and are kept apart here.

Legend:
wheat shoots = assay: Absorption from the base of wheat shoots and translocation (senescence retardation of leaf sections); format: cell-based, wheat [var.: Yukichabo (Triticum astivum)]; conditions: for The senescence retardation (%): 10 mg/l taken up from shoot base for 18 hours
Description: Wheat seedlings were grown to a height of 14-15 cm in the same manner as in the above Example 8 test (1) and the shoot was cut off at the base. These sections were used for the test.
A solution (10 ml) containing 10 mg/l of the candidate compound or benzyladenine was poured into a test tube 2.5 cm in diameter and five of the wheat shoots as one group were inserted in one test tube containing the candidate solution and left at 25°C for 18 hours under irradiation with light of 1500 Lx. Thereafter, each of the shoots was cut at 5-6 cm, 8-9 cm and 11-12 cm from the above cut end and five of the respective sections as one group were floated on the surface of distilled water (2 ml) in a glass tubular bottle 32 mm in inner diameter with the upper surface of the leaves being uppermost. These were left at 25°C for 3 days in the dark and thereafter, the leaf sections were put in a test tube containing 10 ml of 80% ethanol. This test tube was immersed in a water bath at 80°C for 20 minutes to extract chlorophyll. After cooling, 80% ethanol was added to make up to 10 ml and absorbance of the solution at 665 nm was measured. In the same manner as in the above Example 8 test (1), senescence retardation was obtained.

Water solubility = format: physicochemical
Description: Water solubility of adenine derivatives of the present invention and representative known cytokinin substances was measured and the results are shown in Table 7. […]

[1] = region of leaf section 5-6 (cm) from cut end
[2] = region of leaf section 8-9 (cm) from cut end
[3] = region of leaf section 11-12 cm from cut end

solubility (Water solubility)	solubility (Water solubility; 20°C, read-out: Solubility (g/100 g H₂O) (20°C))	SMILES	The senescence retardation (%) (wheat shoots; [1])	The senescence retardation (%) (wheat shoots; [2])	The senescence retardation (%) (wheat shoots; [3])	senescence retardation compared with benzyladenine (absorbability and translocation) (wheat shoots; all regions of the first true leaf of wheat, result in words)
0.03 mg/mL (≈ 0.133 mM)		c1ccc(CNc2ncnc3nc[nH]c23)cc1 [Benzyladenine, 6-benzylaminopurine, reference compound]	17%	21%	14%	
	99 mg/mL (≈ 445 mM)	CON(C)CCNc1ncnc2nc[nH]c12 [MAED, N⁶-[2-(N-methoxy-N-methylamino)ethyl]adenine]	37%	34%	20%	more pronounced effect of senescence retardation than benzyladenine in all regions
